Source: patent US20090048269A1 (AstraZeneca AB, priority 2007, published 2009)
“And” between values parts separate entries of the source, which are not always exact repeats. Equal values may be shown once.

What was measured:
human ALK5 [1] = target: T1, human ALK5 (Homo sapiens, UniProt P36897); assay: ALK5 Enzyme Assay 1; type: biochemical; design: 6His tagged ALK5 protein (amino acids 162-503) expressed in insect cells; 6His; made in house; host or cells: insect cells
T1 sequence (P36897 162-503): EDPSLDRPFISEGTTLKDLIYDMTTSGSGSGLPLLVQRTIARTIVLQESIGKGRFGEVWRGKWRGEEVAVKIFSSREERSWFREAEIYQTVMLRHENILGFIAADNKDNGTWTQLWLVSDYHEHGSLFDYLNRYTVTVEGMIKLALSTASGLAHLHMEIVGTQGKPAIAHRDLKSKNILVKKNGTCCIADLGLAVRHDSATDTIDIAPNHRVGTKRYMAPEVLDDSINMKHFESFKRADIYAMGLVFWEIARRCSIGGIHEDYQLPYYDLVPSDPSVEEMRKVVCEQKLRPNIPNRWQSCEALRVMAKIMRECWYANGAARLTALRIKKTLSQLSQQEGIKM
Experimental: This assay measures the ability of a compound to bind to and inhibit the activity of ALK5 protein in vitro. […] Assay measurements were performed in assay buffer comprising 60 mM HEPES pH 7.4, 3 mM MgCl2, 3 mM MnCl2, 3 μM Na orthovanadate, 1.2 mM DTT and 0.05% PEG2000. […] Reactions were performed in the presence of 200 μg/mL casein (Sigma-Aldrich C4765-10ML), 200 ng/mL ALK5, 0.5 μM ATP (Sigma-Aldrich A7699), 1 μCi/mL γ-33P ATP. Following addition of casein, ATP and compound, reactions were initiated by adding ALK5 enzyme and reactions run for 90 minutes. After incubation reactions were terminated by addition of 20 μL per well of 50% orthophosphoric acid. 20 minutes after addition of 70% v/v TCA, precipitated protein was transferred to GF/C 96 well plates using a Tomtec harvester with 1.5% orthophosphoric acid. […] All reactions were performed under linear kinetics.

human ALK5 [2] = target: T1, human ALK5; assay: ALK5 Enzyme Assay 2 (fluorescence polarisation probe displacement); type: binding; design: 6His tagged human ALK5 (residues162-503) was grown and purified from insect cells; 6His; made in house; host or cells: insect cells
In short: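 Recombinant ALK5 (3 μg/mL) incubated with test compound in 50 mM HEPES pH7.4, 10 mM MgCl2, 1 mM DTT, 0.01% CHAPS. Displacement of a fluorescent quinazoline-based ALK5 probe (50 nM final) in presence of 1 μM ATP read by fluorescence polarisation.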

[3] = read-out: EAA: activity (μM) using Enzyme Assay 1
[4] = read-out: EAA2: activity (μM) using Enzyme Assay 2

| SMILES | IC50 (human ALK5 [1]; [3]) | IC50 (human ALK5 [2]; [4]) [µM] | IC50 (human ALK5 [1]; EAA: activity (μM) using Enzyme Assay 1) [µM] | IC50 (human ALK5 [2]) [µM] |
| --- | --- | --- | --- | --- |
| Cc1cc(Oc2ccnc(Nc3ccc(F)cc3)c2)c(-c2ccccn2)nc1C [Example 10, 4-(5,6-Dimethyl-2-pyridin-2-yl-pyridin-3-yl)oxy-N-(4-fluorophenyl)pyridin-2-amine] | 0.017 µM | 0.0883 |  |  |
| Cc1cc(Oc2ccnc(Nc3ccc(S(C)(=O)=O)cc3)c2)c(-c2ccccn2)nc1C [Example 13, 4-(5,6-Dimethyl-2-pyridin-2-yl-pyridin-3-yl)oxy-N-(4-methylsulfonyl-phenyl)-pyridin-2-amine] | 0.00853 µM | 0.0103 |  |  |
| Cc1cc(Oc2ccnc(Nc3ccccn3)c2)c(-c2ccccn2)nc1C [Example 14, 4-(5,6-Dimethyl-2-pyridin-2-yl-pyridin-3-yl)oxy-N-pyridin-2-yl-pyridin-2-amine] | 0.0255 µM and 0.00856 µM |  |  |  |
| Cc1cc(Oc2ccnc(Nc3cccnc3)c2)c(-c2ccccn2)nc1C [Example 15, 4-(5,6-Dimethyl-2-pyridin-2-yl-pyridin-3-yl)oxy-N-pyridin-3-yl-pyridin-2-amine] | 0.0129 µM | 0.0147 |  |  |
| Cc1cc(Oc2ccnc(Nc3ccccc3)c2)c(-c2ccccn2)nc1C [Example 24, 4-(5,6-Dimethyl-2-pyridin-2-yl-pyridin-3-yl)oxy-N-phenyl-pyridin-2-amine] | 0.00417 µM |  |  |  |
| Cc1cc(Oc2ccnc(Nc3ccn(C)n3)c2)c(-c2ccccn2)nc1C [Example 39, 4-(5,6-Dimethyl-2-pyridin-2-yl-pyridin-3-yl)oxy-N-(1-methylpyrazol-3-yl)-pyridin-2-amine] | 0.0935 µM |  |  |  |
| Cc1cc(Oc2ccnc(Nc3ccc4cc[nH]c4c3)c2)c(-c2ccccn2)nc1C [Example 40, N-[4-(5,6-Dimethyl-2-pyridin-2-yl-pyridin-3-yl)-oxypyridin-2-yl]-1H-indol-6-amine] | 1.14 µM and 1.11 µM |  |  |  |
| Cc1cc(Oc2ccnc(Nc3ccccc3Cl)c2)c(-c2ccccn2)nc1C [Example 194B, N-(2-Chlorophenyl)-4-(5,6-dimethyl-2-pyridin-2-ylpyridin-3-yl)-oxypyridin-2-amine] | 2.8 µM |  |  |  |
| Cc1ccc(Oc2ccnc(Nc3ccc(C(=O)O)cc3)c2)c(C)n1 [Example 205, Lithium 4-{[4-(2,6-dimethylpyridin-3-yl)oxypyridin-2-yl]-amino}benzoate] | 0.15 µM |  |  |  |
| Cc1ccc(Oc2ccnc(Nc3cccc(CN4CCN(C(=O)CCNC(=O)OC(C)(C)C)CC4)c3)c2)c(C)n1 [Example 208, tert-Butyl N-(3-{4-[(3-{[4-(2,6-dimethylpyridin-3-yl)oxypyridin-2-yl]amino}phenyl)methyl]piperazin-1-yl}-3-oxopropyl)carbamate] |  | 0.0204 |  |  |
| Cc1ccc(Oc2ccnc(Nc3cccc(C(=O)O)c3)c2)c(C)n1 [Example 210, Sodium 3-{[4-(2,6-dimethylpyridin-3-yl)oxypyridin-2-yl]amino}benzoate] |  | 0.0392 |  |  |
| Cc1ccc(Oc2ccnc(Nc3ccc(C(=O)NCCN4CCS(=O)(=O)CC4)cc3)c2)c(C)n1 [Example 215, 4-{[4-(2,6-Dimethylpyridin-3-yl)oxypyridin-2-yl]amino}-N-[2-(1,1-dioxo-1,4-thiazinan-4-yl)ethyl]benzamide] |  | 0.0362 |  |  |
| Cc1ccc(Oc2ccnc(Nc3ccc(C(=O)NCCn4cccc4)cc3)c2)c(C)n1 [Example 216, 4-{[4-(2,6-Dimethylpyridin-3-yl)oxypyridin-2-yl]amino}-N-(2-pyrrol-1-ylethyl)benzamide] |  | 0.108 |  |  |
| Cc1ccc(Oc2ccnc(Nc3ccc(C(=O)NCCN4CCCCC4)cc3)c2)c(C)n1 [Example 217, 4-{[4-(2,6-Dimethylpyridin-3-yl)oxypyridin-2-yl]amino}-N-(2-piperidin-1-ylethyl)benzamide] |  | 0.0121 |  |  |
| Cc1ccc(Oc2ccnc(Nc3ccc(C(=O)NCCN4CC5CCC(C4)O5)cc3)c2)c(C)n1 [Example 218, 4-{[4-(2,6-Dimethylpyridin-3-yl)oxypyridin-2-yl]amino}-N-[2-(8-oxa-3-azabicyclo[3.2.1]octan-3-yl)ethyl]benzamide] |  | 0.0495 |  |  |
| Cc1ccc(Oc2ccnc(Nc3ccc(C(=O)NCCN4CCC(F)(F)CC4)cc3)c2)c(C)n1 [Example 219, N-[2-(4,4-Difluoropiperidin-1-yl)ethyl]-4-{[4-(2,6-dimethyl-pyridin-3-yl)oxypyridin-2-yl]amino}benzamide] |  | 0.108 |  |  |
| Cc1ccc(Oc2ccnc(Nc3ccc(C(=O)NCCN4CCOCC4)cc3)c2)c(C)n1 [Example 220, 4-{[4-(2,6-Dimethylpyridin-3-yl)oxypyridin-2-yl]amino}-N-(2-morpholin-4-ylethyl)benzamide] |  | 0.0675 |  |  |

The next lines start with the values.

| IC50 (human ALK5 [1]; [3]) | IC50 (human ALK5 [2]; [4]) [µM] | IC50 (human ALK5 [1]; EAA: activity (μM) using Enzyme Assay 1) [µM] | IC50 (human ALK5 [2]) [µM] | SMILES |
| --- | --- | --- | --- | --- |
| 0.0783 µM | 0.089 |  |  | COc1cc(Nc2cc(Oc3cccnc3-c3cccc(C)n3)ccn2)cc(OC)c1OC [Example 1, 4-[2-(6-Methylpyridin-2-yl)pyridin-3-yl]oxy-N-(3,4,5-trimethoxy-phenyl)pyridin-2-amine] |
| 0.0337 µM | 0.0723 |  |  | COc1cc(Nc2cc(Oc3cc(C)c(C)nc3-c3cccc(C)n3)ccn2)cc(OC)c1OC [Example 2, 4-[5,6-Dimethyl-2-(6-methylpyridin-2-yl)pyridin-3-yl]oxy-N-(3,4,5-trimethoxy-phenyl)pyridin-2-amine] |
| 0.0274 µM | 0.0459 |  |  | CCc1ccc(Oc2ccnc(Nc3cc(OC)c(OC)c(OC)c3)c2)c(-c2cccc(C)n2)n1 [Example 3, 4-[6-Ethyl-2-(6-methylpyridin-2-yl)pyridin-3-yl]oxy-N-(3,4,5-trimethoxy-phenyl)pyridin-2-amine] |
| 0.00951 µM | 0.056 |  |  | COc1cc(Nc2cc(Oc3cc(C)c(C)nc3-c3nc(C)c(C)s3)ccn2)cc(OC)c1OC [Example 4, {4-[2-(4,5-Dimethyl-thiazol-2-yl)-5,6-dimethyl-pyridin-3-yloxy]-pyridin-2-yl}-(3,4,5-trimethoxy-phenyl)-amine] |
| 0.0153 µM | 0.0169 |  |  | COc1cc(Nc2cc(Oc3ccc(C)nc3-c3cnn(C)c3)ccn2)cc(OC)c1OC [Example 5, 4-[6-Methyl-2-(1-methylpyrazol-4-yl)pyridin-3-yl]oxy-N-(3,4,5-trimethoxy-phenyl)pyridin-2-amine] |
| 5.5 µM | 1.97 |  |  | COc1cc(Nc2cc(Oc3cccnc3)ccn2)cc(OC)c1OC [Example 6, 4-Pyridin-3-yloxy-N-(3,4,5-trimethoxyphenyl)pyridin-2-amine] |
|  |  | 0.0206 | 0.0349 | COc1cc(Nc2cc(Oc3ccc(C)nc3C)ccn2)cc(OC)c1OC [Example 7, 4-(2,6-Dimethylpyridin-3-yl)oxy-N-(3,4,5-trimethoxyphenyl)-pyridin-2-amine] |
| 0.174 µM | 0.294 |  |  | COc1cc(Nc2cc(Oc3ccc(C)nc3)ccn2)cc(OC)c1OC [Example 8, 4-(6-Methylpyridin-3-yl)oxy-N-(3,4,5-trimethoxyphenyl)-pyridin-2-amine] |
| 0.114 µM | 0.187 |  |  | COc1cc(Nc2cc(Oc3cccnc3C)ccn2)cc(OC)c1OC [Example 9, 4-(2-Methylpyridin-3-yl)oxy-N-(3,4,5-trimethoxyphenyl)-pyridin-2-amine] |
| 0.0073 µM | 0.0418 |  |  | Cc1cc(Oc2ccnc(Nc3cccc(Cl)c3)c2)c(-c2ccccn2)nc1C [Example 12, N-(3-Chlorophenyl)-4-(5,6-dimethyl-2-pyridin-2-yl-pyridin-3-yl)-oxy-pyridin-2-amine] |
| 0.0128 µM | 0.00602 |  |  | CC(=O)Nc1cc(Nc2cc(Oc3cc(C)c(C)nc3-c3ccccn3)ccn2)ccc1C [Example 16, N-(5-{[4-(5,6-Dimethyl-2-pyridin-2-yl-pyridin-3-yl)oxypyridin-2-yl]amino}-2-methyl-phenyl)acetamide] |
| 0.454 µM |  |  |  | COc1ccc(NC(C)=O)cc1Nc1cc(Oc2cc(C)c(C)nc2-c2ccccn2)ccn1 [Example 73, N-(3-{[4-(5,6-Dimethyl-2-pyridin-2-ylpyridin-3-yl)oxypyridin-2-yl]-amino}-4-methoxyphenyl)acetamide] |
| 0.615 µM |  |  |  | COc1cc(Nc2cc(Oc3ccc(C)nc3-c3ccnc4ccccc34)ccn2)cc(OC)c1OC [Example 170, 4-[6-Methyl-2-(quinolin-4-yl)pyridin-3-yloxy]-N-(3,4,5-trimethoxyphenyl)pyridin-2-amine] |
|  | 3.02 |  |  | COc1cc(Nc2cc(Oc3cccnc3-c3ccccc3C(N)=O)ccn2)cc(OC)c1OC [Example 221, 2-(3-{2-[(3,4,5-Trimethoxyphenyl)amino]pyridin-4-yl}oxypyridin-2-yl)benzamide] |
